Experimental data as given in patent US20230339891A1, “URACIL DERIVATIVES AS MER-AXL INHIBITORS” (BRISTOL-MYERS SQUIBB COMPANY, priority 2018, published 2023).

Legend:
GST-MERTK 578-872 = GST-MERTK 578-872 (Homo sapiens (Human), UniProt Q12866); experiment: MERTK kinase homogeneous time resolved fluorescence (HTRF) binding assay; settings: 1 nM kinase, fluorescein-labeled kinase tracer at Kd, 60 minutes at room temperature; read-out: Mer HTRF IC50
Experimental: (§1) MERTK, AXL, TYRO3 Kinase Homogeneous Time Resolved Fluorescence (HTRF) Assay
(§2) Assays were performed in black, flat-bottom, 1536-well plates. The reactions were incubated at room temperature for 60 minutes, following which the HTRF signals, ratio of fluorescence intensities at emission wavelengths for fluorescein acceptor (520 nm) and terbium donor (495 nm), the 520/495 ratio, were measured on the Envision Plate reader. Inhibition data were calculated from the 520/495 ratio generated by the no protein control reactions for 100% inhibition and vehicle-only reactions for 0% inhibition, and dose response curves generated to determine the concentration required for inhibiting 50% of the HTRF signal (IC50). Compounds were dissolved at 10 mM in dimethylsulfoxide (DMSO) and evaluated at eleven concentrations.

HIS-AXL 473-End = HIS-AXL 473-End (Homo sapiens (Human), UniProt P30530); experiment: AXL kinase homogeneous time resolved fluorescence (HTRF) binding assay; settings: 1 nM kinase, fluorescein-labeled kinase tracer at Kd, 60 minutes at room temperature
Experimental: as §1, §2

HIS-AXL 473-End, sequence (P30530 473-894): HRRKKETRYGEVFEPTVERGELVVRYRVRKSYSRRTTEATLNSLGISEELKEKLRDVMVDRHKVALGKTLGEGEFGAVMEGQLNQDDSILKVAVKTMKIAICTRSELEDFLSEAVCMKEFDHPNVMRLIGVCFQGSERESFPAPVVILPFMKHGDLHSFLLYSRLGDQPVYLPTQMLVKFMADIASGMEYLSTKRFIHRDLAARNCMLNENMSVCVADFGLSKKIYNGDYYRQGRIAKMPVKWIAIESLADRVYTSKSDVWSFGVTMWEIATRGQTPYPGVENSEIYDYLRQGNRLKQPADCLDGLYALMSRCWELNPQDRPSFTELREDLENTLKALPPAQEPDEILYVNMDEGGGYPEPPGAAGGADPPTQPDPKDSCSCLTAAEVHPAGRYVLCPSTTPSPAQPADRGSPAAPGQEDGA
GST-MERTK 578-872, sequence (Q12866 578-872): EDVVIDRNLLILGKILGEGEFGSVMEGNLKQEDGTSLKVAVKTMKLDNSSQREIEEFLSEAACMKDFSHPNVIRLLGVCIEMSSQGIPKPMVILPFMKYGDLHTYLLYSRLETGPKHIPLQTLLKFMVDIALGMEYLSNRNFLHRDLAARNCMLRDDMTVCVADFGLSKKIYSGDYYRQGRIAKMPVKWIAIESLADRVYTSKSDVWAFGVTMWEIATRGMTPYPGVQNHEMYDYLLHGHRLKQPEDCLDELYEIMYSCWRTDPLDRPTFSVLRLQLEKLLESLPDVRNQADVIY

Compound | IC50 (GST-MERTK 578-872) [nM] | IC50 (HIS-AXL 473-End) [nM]
CC(C)n1cc(C(=O)Nc2ccc(Oc3ccnc(Nc4ccc(S(=O)(=O)N(C)C)cn4)c3)c(F)c2)c(=O)n(-c2cccc(C(F)(F)F)c2)c1=O [Example 72] | 119 | 90
CC(=O)c1cccc(-n2c(=O)c(C(=O)Nc3ccc(Oc4ccnc(Nc5ccc(S(=O)(=O)N(C)C)cn5)c4)c(F)c3)cn(C(C)C)c2=O)c1 [Example 73] | 24 | 59
CC(C)n1cc(C(=O)Nc2ccc(Oc3ccnc(Nc4ccc(S(=O)(=O)N(C)C)cn4)c3)cc2)c(=O)n(-c2ccc(F)cc2)c1=O [Example 74, N-{4-[(2-{[5-(dimethylsulfamoyl)pyridin-2-yl]amino}pyridin-4-yl)oxy]phenyl}-3-(4-fluorophenyl)-2,4-dioxo-1-(propan-2-yl)-1,2,3,4-tetrahydropyrimidine-5-carboxamide] | 1440 | 2.9
CC(C)n1cc(C(=O)Nc2ccc(Oc3ccnc(Nc4ccc(S(=O)(=O)N(C)C)cn4)c3)cc2)c(=O)n(-c2ccccc2)c1=O [Example 75, N-{4-[(2-{[5-(dimethylsulfamoyl)pyridin-2-yl]amino}pyridin-4-yl)oxy]phenyl}-2,4-dioxo-3-phenyl-1-(propan-2-yl)-1,2,3,4-tetrahydropyrimidine-5-carboxamide] | 42 | 3.5
CC(C)n1cc(C(=O)Nc2ccc(Oc3ccnc(Nc4ccc(S(=O)(=O)N5CCCCC5)cn4)c3)c(F)c2)c(=O)n(-c2ccc(F)cc2)c1=O [Example 76, N-{3-Fluoro-4-[(2-{[5-(piperidine-1-sulfonyl)pyridin-2-yl]amino}pyridin-4-yl)oxy]phenyl}-3-(4-fluorophenyl)-2,4-dioxo-1-(propan-2-yl)-1,2,3,4-tetrahydropyrimidine-5-carboxamide] | 38 | 18
CNS(=O)(=O)c1ccc(Nc2cc(Oc3ccc(NC(=O)c4cn(C(C)C)c(=O)n(-c5ccc(F)cc5)c4=O)cc3F)ccn2)nc1 [Example 77] | 8.3 | 5
CC(C)NS(=O)(=O)c1ccc(Nc2cc(Oc3ccc(NC(=O)c4cn(C(C)C)c(=O)n(-c5ccc(F)cc5)c4=O)cc3F)ccn2)nc1 [Example 78] | 9.8 | 986
CC(C)n1cc(C(=O)Nc2ccc(Oc3ccnc(Nc4ccc(S(=O)(=O)NC5CC5)cn4)c3)c(F)c2)c(=O)n(-c2ccc(F)cc2)c1=O [Example 79] | 13 | 70
CC(C)n1cc(C(=O)Nc2ccc(Oc3ccnc(Nc4ccc(S(=O)(=O)NC(C)(C)C)cn4)c3)c(F)c2)c(=O)n(-c2ccc(F)cc2)c1=O [Example 80] | 19 | 12
CC(C)n1cc(C(=O)Nc2ccc(Oc3ccnc(Nc4ccc(S(=O)(=O)N5CCC5)cn4)c3)c(F)c2)c(=O)n(-c2ccc(F)cc2)c1=O [Example 81] | 17 | 4.4
CC(C)n1cc(C(=O)Nc2ccc(Oc3ccnc(Nc4ccc(S(=O)(=O)N5CC(O)C5)cn4)c3)c(F)c2)c(=O)n(-c2ccc(F)cc2)c1=O [Example 82] | 8.8 | 256
CC(C)n1cc(C(=O)Nc2ccc(Oc3ccnc(Nc4ccc(S(=O)(=O)N5CCOCC5)cn4)c3)c(F)c2)c(=O)n(-c2ccc(F)cc2)c1=O [Example 84] | 31 | 2330
CC(C)n1cc(C(=O)Nc2ccc(Oc3ccnc(Nc4ccc(S(=O)(=O)N5CCN(C)CC5)cn4)c3)c(F)c2)c(=O)n(-c2ccc(F)cc2)c1=O [Example 85] | 19 | 3.9
Cc1cc(Nc2cc(Oc3ccc(NC(=O)c4cn(C(C)C)c(=O)n(-c5ccc(F)cc5)c4=O)cc3F)ccn2)ncc1S(=O)(=O)N(C)C [Example 86, N-{4-[(2-{[5-(dimethylsulfamoyl)-4-methylpyridin-2-yl]amino}pyridin-4-yl)oxy]-3-fluorophenyl}-3-(4-fluorophenyl)-2,4-dioxo-1-(propan-2-yl)-1,2,3,4-tetrahydropyrimidine-5-carboxamide] | 31 | 10
CC(C)n1cc(C(=O)Nc2ccc(Oc3ccnc(Nc4ccc(NS(C)(=O)=O)cn4)c3)c(F)c2)c(=O)n(-c2ccc(F)cc2)c1=O [Example 87, N-[3-fluoro-4-({2-[(5-methanesulfonamidopyridin-2-yl)amino]pyridin-4-yl}oxy)phenyl]-3-(4-fluorophenyl)-2,4-dioxo-1-(propan-2-yl)-1,2,3,4-tetrahydropyrimidine-5-carboxamide] | 6.7 | 16
CC(C)n1cc(C(=O)Nc2ccc(Oc3ccnc(Nc4ccc(N5CCCC5=O)cn4)c3)c(F)c2)c(=O)n(-c2ccc(F)cc2)c1=O [Example 88, N-{3-fluoro-4-[(2-{[5-(2-oxopyrrolidin-1-yl)pyridin-2-yl]amino}pyridin-4-yl)oxy]phenyl}-3-(4-fluorophenyl)-2,4-dioxo-1-(propan-2-yl)-1,2,3,4-tetrahydropyrimidine-5-carboxamide] | 5.6 | 3.3
CC(C)n1cc(C(=O)Nc2ccc(Oc3ccnc(Nc4ccc(N5CCC(NC(=O)OC(C)(C)C)C5=O)cn4)c3)c(F)c2)c(=O)n(-c2ccc(F)cc2)c1=O (centres unmarked) [Example 89] | 6.6 | 4.4
CC(C)n1cc(C(=O)Nc2ccc(Oc3ccnc(Nc4ccc(N5CCC(N)C5=O)cn4)c3)c(F)c2)c(=O)n(-c2ccc(F)cc2)c1=O (centres unmarked) [Example 90] | 3.1 | 2.2
CC(C)n1cc(C(=O)Nc2ccc(Oc3ccnc(Nc4ccc(N5CCN(C(C)(C)C)C5=O)cn4)c3)c(F)c2)c(=O)n(-c2ccc(F)cc2)c1=O [Example 91] | 72 | 38
